Experimental data from US20030220415A1, “Heterocyclic amine diol compounds and their biocidal derivatives” (priority 2002, published 2003).
Read-outs that look alike come from different tables or passages of the source.

System: Staphylococcus aureus bacteria
Details: 1957 mg/L solution, chlorine-demand-free water pH 7, ambient temperature

CC1(C)C(=O)N(CN(CCO)CCO)C(=O)N1Cl [chlorinated heterocyclic amine diol, 1-chloro-3-[1-bis(N,N-2-hydroxyethyl)aminomethyl]-5,5-dimethyl-1,3-imidazolidin-2,4-dione]
inactivation of Staphylococcus aureus (contact time 30 min): > 5 logs | inactivation of Staphylococcus aureus (contact time 60 min): > 5 logs
